Drawing on ChEMBL document CHEMBL1131004, “Optimizing the binding of fullerene inhibitors of the HIV-1 protease through predicted increases in hydrophobic desolvation” (J Med Chem, 1998), this text covers Ki for 3 compounds.

For this test, the target named is Human immunodeficiency virus type 1 protease (Human immunodeficiency virus 1, UniProt Q72874). The test can be described thus: Binding affinity towards HIV-1 Protease.
A word on the Ki: it is a dissociation constant, usually derived from enzyme kinetics or from competition with a known ligand. Low values mean tighter binding, high ones weaker binding. The compound `CC(C)C1CC(O)C(C(C)C)C23c4c5c6c7c8c9c(c%10c%11c2c2c4c4c%12c5c5c6c6c8c8c%13c9c9c%10c%10c%11c%11c2c2c4c4c%12c%12c5c5c6c8c6c8c%13c9c9c%10c%10c%11c2c2c4c4c%12c5c6c5c8c9c%10c2c45)C713` (stereo not drawn) came in with a Ki of 150 nM.
In the case of `O=C(O)CCC(=O)NCCc1ccc(C2(c3ccc(CCNC(=O)CCC(=O)O)cc3)C34c5c6c7c8c9c%10c(c%11c%12c3c3c5c5c%13c6c6c7c7c9c9c%14c%10c%10c%11c%11c%12c%12c3c3c5c5c%13c%13c6c6c7c9c7c9c%14c%10c%10c%11c%11c%12c3c3c5c5c%13c6c7c6c9c%10c%11c3c56)C824)cc1` it was 5000 nM; in that of `OC(c1ccccc1)C1(c2ccccc2)C23c4c5c6c7c8c9c(c%10c%11c2c2c4c4c%12c5c5c6c6c8c8c%13c9c9c%10c%10c%11c%11c2c2c4c4c%12c%12c5c5c6c8c6c8c%13c9c9c%10c%10c%11c2c2c4c4c%12c5c6c5c8c9c%10c2c45)C731` (stereo not drawn), 103 nM.
